According to US20110059033A1, “ULTRAVIOLET ABSORBING COMPOSITION” (FUJIFILM Corporation, priority 2009, published 2011):

Experiment: Maximum absorption wavelength (λmax) of the illustrative compounds in solvent
Assay type: physicochemical
Conditions: EtOAc

Row | Structure (SMILES) | maximum absorption wavelength (λmax) [nm]
1 | CCCCC(CC)COc1ccc(OCC(CC)CCCC)c2c1SC(=C(C#N)C(=O)C(C)(C)C)S2 (stereo not drawn) [S-06] | 382
2 | CC(CCOc1ccc(OCCC(C)CC(C)(C)C)c2c1SC(=C(C#N)C#N)S2)CC(C)(C)C (stereo not drawn) [S-27] | 369
3 | CC(C)(C)C(=O)C(C#N)=C1Sc2c(OCCO)ccc(OCCO)c2S1 [S-29] | 382
4 | CCCCC(CC)C(=O)Oc1ccc(OC(=O)C(CC)CCCC)c2c1SC(=C(C#N)C(N)=O)S2 (stereo not drawn) [S-20] | 357
5 | CCCCC(CC)COc1ccc(OCC(CC)CCCC)c2c1SC(=C(C#N)C#N)S2 (stereo not drawn) [S-26] | 369
6 | CC(CCOc1ccc(OCCC(C)CC(C)(C)C)c2c1SC(=C(C#N)C(=O)C(C)(C)C)S2)CC(C)(C)C (stereo not drawn) [S-28] | 382
7 | CCCCC(CC)C(=O)Oc1ccc(OC(=O)C(CC)CCCC)c2c1SC(=C(C#N)C(=O)C(C)(C)C)S2 (stereo not drawn) [S-01] | 375
8 | CCCCC(CC)C(=O)Oc1ccc(OC(=O)C(CC)CCCC)c2c1SC(=C(C#N)C#N)S2 (stereo not drawn) [S-17] | 363

Same assay, conditions: MeOH

Row | Structure (SMILES) | maximum absorption wavelength (λmax) [nm]
9 | N#CC(C#N)=C1Sc2c(OCCO)ccc(OCCO)c2S1 [S-30] | 369
